According to ChEMBL document CHEMBL2157905, “Inhibition of therapeutically important polymerases with high affinity bis-intercalators” (Bioorg Med Chem Lett, 2012):
pIC50: −log10 of the molar value. Starred links: 1 amine or outer side, 2 acyl side, 3 side chain; linkers in the order of their positions; H or OH if unused. Positions of bridges follow the written chain, without caps; N, C: chain ends. Non-standard residues stand in square brackets, D forms with d. Residues, ends and D or L forms follow the SMILES beside them. Chains are numbered I, II in the order given. Actinocin(9to1) = Cc1c2oc3c(C)ccc(C(=O)[*:1])c3nc-2c(C(=O)[*:2])c(N)c1=O; NMeV = CN[C@H](C(=O)O)C(C)C; Sar = CNCC(=O)O

How the values were obtained:
[1] = target: T1, Human immunodeficiency virus type 1 reverse transcriptase (Human immunodeficiency virus 1, UniProt Q72547); test: Inhibition of HIV-1 reverse transcriptase using Poly(rA).p(dT) (12 to 18) as substrate after 30 mins by single point PCR assay; details: for pIC50: read-out: IC50
[2] = target: T1, Human immunodeficiency virus type 1 reverse transcriptase; test: Inhibition of HIV-1 reverse transcriptase using 25 ug/mL of Poly(rA).p(dT) (12 to 18) as substrate after 30 mins by single point PCR assay
[3] = target: T1, Human immunodeficiency virus type 1 reverse transcriptase; test: Inhibition of HIV-1 reverse transcriptase using 0.05 ug/mL of Poly(rA).p(dT) (12 to 18) as substrate after 30 mins by single point PCR assay
[4] = target: T1, Human immunodeficiency virus type 1 reverse transcriptase; test: Inhibition of HIV-1 reverse transcriptase using 25 ug/mL of Poly(rA).p(dT) (12 to 18) as substrate after 30 mins by single point PCR assay in presence of 340 uM base pair of calf thymus DNA
[5] = Inhibition of telomerase
[6] = target: T1, Human immunodeficiency virus type 1 reverse transcriptase; test: Inhibition of HIV-1 reverse transcriptase using 0.5 ug/mL of Poly(rA).p(dT) (12 to 18) as substrate after 30 mins by single point PCR assay
[7] = Inhibition of partially purified telomerase by fluorescence-based assay
[8] = Inhibition of telomerase in human HeLa cell extract by fluorescence-based assay; type: cell-free

For `Cc1c2oc3c(C)c(N)cc(C(=O)N[C@@H]4C(=O)N[C@H](C(C)C)C(=O)N5CCC[C@H]5C(=O)N(C)CC(=O)N(C)[C@@H](C(C)C)C(=O)O[C@@H]4C)c3nc-2c(C(=O)N[C@@H]2C(=O)N[C@H](C(C)C)C(=O)N3CCC[C@H]3C(=O)N(C)CC(=O)N(C)[C@@H](C(C)C)C(=O)O[C@@H]2C)c(N)c1=O`, the pIC50 [1] was 4.03.

In the case of `Nc1ccc2c(c1)c(-c1ccccc1)[n+](CCCNCCNCCC[n+]1c(-c3ccccc3)c3cc(N)ccc3c3ccc(N)cc31)c1cc(N)ccc21`, the pIC50 [2] was 5.64, the pIC50 [3] was 7.97 and the pIC50 [4] was 5.07.

With `NC(=O)[C@H](CCCNC(=O)c1ccc(C[n+]2c(-c3ccccc3)c3cc(N)ccc3c3ccc(N)cc32)cc1)NC(=O)CCNC(=O)C(N)CNC(=O)c1ccc(C[n+]2c(-c3ccccc3)c3cc(N)ccc3c3ccc(N)cc32)cc1` (stereo not given in full) the pIC50 [3] was 8.04.

For `NC(=O)[C@H](CCCNC(=O)c1ccc(C[n+]2c(-c3ccccc3)c3cc(N)ccc3c3ccc(N)cc32)cc1)NC(=O)CCCCCNC(=O)[C@@H](N)CCCNC(=O)c1ccc(C[n+]2c(-c3ccccc3)c3cc(N)ccc3c3ccc(N)cc32)cc1`, the pIC50 [3] was 8.31.

Work on `CC[N+](C)(CC)CCC[n+]1c(-c2ccccc2)c2cc(N)ccc2c2ccc(N)cc21` [PROPIDIUM] yielded a pIC50 [1] of 5.52.

In the case of `CC[n+]1c(-c2ccccc2)c2cc(N)ccc2c2ccc(N)cc21` [HOMIDIUM BROMIDE], the pIC50 [1] was 5.70.

In the case of `CC[n+]1c(-c2ccccc2)c2cc(N)ccc2c2ccc(N)cc21` [HOMIDIUM], the pIC50 [5] was 5.48, the pIC50 [2] was 5.66 and the pIC50 [6] was 5.74. It also gave a pIC50 [3] of 5.68.

`Cc1c2ccncc2c(C)c2c1[nH]c1ccccc12` [ELLIPTECINE] showed a pIC50 [1] of 3.74.

For `Cc1cc2cc3cc(C)c(N)cc3nc2cc1N` [ACRIDINE YELLOW], the pIC50 [1] was 4.49.

Work on `NC(=O)C(CNC(=O)c1ccc(C[n+]2c(-c3ccccc3)c3cc(N)ccc3c3ccc(N)cc32)cc1)NC(=O)CCCCCNC(=O)[C@@H](N)CCCCNC(=O)c1ccc(C[n+]2c(-c3ccccc3)c3cc(N)ccc3c3ccc(N)cc32)cc1` (stereo not given in full) yielded a pIC50 [3] of 7.51.

With `O=C(O)c1ccc2cc3ccccc3cc2c1` the IC50 [1] was “Not Active”.

With `NC(=O)C(CNC(=O)c1ccc(C[n+]2c(-c3ccccc3)c3cc(N)ccc3c3ccc(N)cc32)cc1)NC(=O)[C@@H](N)CCCNC(=O)c1ccc(C[n+]2c(-c3ccccc3)c3cc(N)ccc3c3ccc(N)cc32)cc1` (stereo not given in full) the pIC50 [3] was 7.65.

Work on `CN(C)c1ccc2cc3ccc(N(C)C)cc3nc2c1` [ACRIDINE ORANGE] yielded a pIC50 [1] of 3.70.

With `O=C(O)c1cccc2cc3ccccc3cc12` the IC50 [1] was “Not Active”.

`COc1ccc2nc3cc(Cl)ccc3c(NCCCNCCCCNCCCNc3c4ccc(Cl)cc4nc4ccc(OC)cc34)c2c1` [ACRIDINE DIMER] showed a pIC50 [2] of 4.89, a pIC50 [6] of 6.40 and a pIC50 [3] of 6.66.

With `CCOc1ccc2nc3cc(N)ccc3c(N)c2c1` the pIC50 [1] was 4.70.

Compound `NCCCC[C@H](NC(=O)CCNC(=O)C(N)CN)C(N)=O` (stereo not given in full) has a pIC50 [7] of 7.00 and a pIC50 [8] of 6.22.

With `Cc1c2oc3c(C)ccc(C(=O)N[C@@H]4C(=O)N[C@H](C(C)C)C(=O)N5CCC[C@H]5C(=O)N(C)CC(=O)N(C)[C@@H](C(C)C)C(=O)O[C@@H]4C)c3nc-2c(C(=O)N[C@@H]2C(=O)N[C@H](C(C)C)C(=O)N3CCC[C@H]3C(=O)N(C)CC(=O)N(C)[C@@H](C(C)C)C(=O)O[C@@H]2C)c(N)c1=O` [DACTINOMYCIN] (I: T[dV]P[Sar][NMeV] / II: T[dV]P[Sar][NMeV]; ester I:1-I:C, II:1-II:C; linker I:N-II:N via Actinocin(9to1)) the pIC50 [1] was 3.57.

In the case of `O=C(O)c1c2ccccc2nc2ccccc12`, the IC50 [1] was “Not Active”.

For `COc1ccc2nc3cc(Cl)ccc3c(N)c2c1`, the IC50 [1] was “Not Active”.

With `COc1cccc2c1C(=O)c1c(O)c3c(c(O)c1C2=O)C[C@@](O)(C(C)=O)C[C@@H]3O[C@H]1C[C@H](N)[C@H](O)[C@H](C)O1` [DAUNORUBICIN] the pIC50 [1] was 3.86.

Compound `NC(=O)[C@H](CCCCNC(=O)c1ccc(C[n+]2c(-c3ccccc3)c3cc(N)ccc3c3ccc(N)cc32)cc1)NC(=O)CCCNC(=O)[C@@H](N)CCCCNC(=O)c1ccc(C[n+]2c(-c3ccccc3)c3cc(N)ccc3c3ccc(N)cc32)cc1` has a pIC50 [3] of 7.98.
